Laboratory results published in patent publication US10377770B2 (Novartis AG, priority 2015, dated 2019).

The compounds below were run against C-Raf FL (full length CRAF with Y340E and Y341E activating mutations, co-expressed with h14-3-3 zeta) (Homo sapiens (Human), UniProt P04049, Y340E/Y341E) (assay: In vitro Raf activity determination, AlphaScreen p-MEK readout, c-Raf (C-Raf FL)). Details: c-Raf approximately 4 nM, ATP 1 μM, pre-incubation 60 minutes, reaction 1 hour.
Type: biochemical
Procedure, shortened: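 Phosphorylation of kinase-dead biotinylated MEK1 (~10 nM) by C-Raf FL (~4 nM) read by AlphaScreen luminescence with anti-phospho-MEK1/2 after EDTA stop. ATP was 1 μM, with a 1 h reaction at room temperature. Compounds were pre-incubated with enzyme and substrate for 60 min in Tris/MgCl2 buffer, pH 7.5.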

Sequence of C-Raf FL (full length CRAF with Y340E and Y341E activating mutations, co-expressed with h14-3-3 zeta) (P04049 whole entry Y340E/Y341E): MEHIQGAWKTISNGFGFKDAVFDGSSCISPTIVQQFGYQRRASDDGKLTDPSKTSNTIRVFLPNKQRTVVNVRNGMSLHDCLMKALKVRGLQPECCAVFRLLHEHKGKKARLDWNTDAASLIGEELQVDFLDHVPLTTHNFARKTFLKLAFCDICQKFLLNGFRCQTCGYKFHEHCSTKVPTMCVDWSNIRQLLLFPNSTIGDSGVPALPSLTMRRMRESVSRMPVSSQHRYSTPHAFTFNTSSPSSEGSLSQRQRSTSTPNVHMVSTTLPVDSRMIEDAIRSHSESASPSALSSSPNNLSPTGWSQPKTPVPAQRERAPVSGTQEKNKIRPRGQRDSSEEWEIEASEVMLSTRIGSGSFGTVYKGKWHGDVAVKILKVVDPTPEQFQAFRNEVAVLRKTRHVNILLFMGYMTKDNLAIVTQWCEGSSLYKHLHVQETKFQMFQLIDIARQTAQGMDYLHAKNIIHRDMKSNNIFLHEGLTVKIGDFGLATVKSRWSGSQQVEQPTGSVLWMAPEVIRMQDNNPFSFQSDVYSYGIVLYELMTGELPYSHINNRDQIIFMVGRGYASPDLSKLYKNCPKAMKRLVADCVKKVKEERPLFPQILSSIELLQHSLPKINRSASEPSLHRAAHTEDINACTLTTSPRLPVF
Sequence of C-Raf FL (full length CRAF with Y340E and Y341E activating mutations, co-expressed with h14-3-3 zeta) (P63104 whole entry partner): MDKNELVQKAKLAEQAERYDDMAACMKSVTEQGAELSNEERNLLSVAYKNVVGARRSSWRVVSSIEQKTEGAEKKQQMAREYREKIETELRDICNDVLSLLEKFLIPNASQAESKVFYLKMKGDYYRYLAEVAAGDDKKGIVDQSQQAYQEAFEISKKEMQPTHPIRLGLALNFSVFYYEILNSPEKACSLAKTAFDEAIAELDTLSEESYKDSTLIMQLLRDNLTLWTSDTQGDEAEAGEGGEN

**Q.** Which IC50 does the source give for Cc1ccc(NC(=O)c2ccnc(C(C)(F)F)c2)cc1-c1ccc2c(c1)N1CCOC[C@@H]1C1(COC1)C2 [Example 58, (S)-2-(1,1-difluoroethyl)-N-(4-methyl-3-(1′,2′,4′,4a′-tetrahydro-6′H-spiro[oxetane-3,5′-[1,4]oxazino[4,3-a]quinolin]-9′-yl)phenyl)isonicotinamide] here?
**A.** The IC50 was 10 pM.

**Q.** How did the IC50 turn out when Cc1ccc(NC(=O)c2ccnc(C(F)(F)F)c2)cc1-c1cnc2c(c1)N1CCOC[C@@H]1[C@@](C)(C#N)C2 [Example 378, N-(3-((4aS,5S)-5-cyano-5-methyl-1,2,4,4a,5,6-hexahydro-[1,4]oxazino[4,3-a][1,5]naphthyridin-9-yl)-4-methylphenyl)-2-(trifluoromethyl)isonicotinamide] was run?
**A.** Its IC50 is 200 pM.

**Q.** Cc1ccc(NC(=O)c2ccnc(C(C)(F)F)c2)cc1-c1ccc2c(c1)N1CCOCC1C(F)(CO)C2 (racemic) [Example 78, (rac)-2-(1,1-difluoroethyl)-N-(3-(5-fluoro-5-(hydroxymethyl)-1,2,4,4a,5,6-hexahydro-[1,4]oxazino[4,3-a]quinolin-9-yl)-4-methylphenyl)isonicotinamide] was tested. Which IC50 did it give?
**A.** The IC50 was 20 pM.

**Q.** Which IC50 does the source give for Cc1ncc(NC(=O)c2cccc(C(F)(F)F)c2)cc1-c1cnc2c(c1)N1CCOC[C@H]1C[C@@H]2O (racemic) [Example 104, rac-cis-N-(5-(6-Hydroxy-1,2,4,4a,5,6-hexahydro-[1,4]oxazino[4,3-a][1,5]naphthyridin-9-yl)-6-methylpyridin-3-yl)-3-(trifluoromethyl)benzamide] here?
**A.** The IC50 was 44 pM.

**Q.** Which IC50 does the source give for Cc1ccc(NC(=O)c2cncc(C(F)(F)F)c2)cc1-c1ccc2c(c1)N1CCOC[C@H]1[C@](F)(CF)C2 [Example 469, N-(3-((4aS,5S)-5-fluoro-5-(fluoromethyl)-1,2,4,4a,5,6-hexahydro-[1,4]oxazino[4,3-a]quinolin-9-yl)-4-methylphenyl)-5-(trifluorometh-yl)nicotinamide] here?
**A.** The IC50 was 1800 pM.

**Q.** With CCN1C(=O)C2(F)COCC[C@@H]2c2cc(-c3cc(NC(=O)c4ccnc(C(F)(F)F)c4)ccc3C)cnc21 (stereo partly drawn) [Example 339, N-(3-((10bR)-6-ethyl-4a-fluoro-5-oxo-2,4,4a,5,6,10b-hexahydro-1H-pyrano[3,4-c][1,8]naphthyridin-9-yl)-4-methylphenyl)-2-(trifluoromethyl) isonicotinamide] as the compound, how does the IC50 read?
**A.** Its IC50 is 500 pM.

**Q.** With Cc1ccc(NC(=O)c2cncc(C(F)(F)F)c2)cc1-c1cc2c(cc1F)C[C@@](F)(CO)[C@H]1COCCN21 [Example 489, N-(3-((4aR,5S)-5,8-difluoro-5-(hydroxymethyl)-1,2,4,4a,5,6-hexahydro-[1,4]oxazino[4,3-a]quinolin-9-yl)-4-methylphenyl)-5-(trifluoromethyl) nicotinamide] as the compound, how does the IC50 read?
**A.** Its IC50 is 400 pM.

**Q.** For Cc1ccc(NC(=O)c2ccnc(C(C)(F)F)c2)cc1-c1cnc2c(c1)N1CCOC[C@H]1C(C)(C)[C@@H]2O (racemic) [Example 160, rac-cis-2-(1,1-difluoroethyl)-N-(3-(6-hydroxy-5,5-dimethyl-1,2,4,4a,5,6-hexahydro-[1,4]oxazino[4,3-a][1,5]naphthyridin-9-yl)-4-methylphenyl)isonicotinamide], which IC50 is on record?
**A.** The IC50 was 27 pM.

**Q.** With Cc1ncc(NC(=O)c2cccc(C(F)(F)F)c2)cc1-c1cnc2c(c1)C1CCOCCC1C(=O)N2CCO (stereo not shown) [Example 285, N-(5-(7-(2-hydroxyethyl)-6-oxo-1,2,4,5,5a,6,7,11b-octahydrooxepino [4,5-c][1,8]naphthyridin-10-yl)-6-methylpyridin-3-yl)-3-(trifluoromethyl) benzamide] as the compound, how does the IC50 read?
**A.** The IC50 was 100 pM.

**Q.** For CCN1C[C@@H]2COCCN2c2cc(-c3cc(NC(=O)c4ccnc(C(C)(F)F)c4)ccc3C)cnc2C1=O [Example 502, (R)-2-(1,1-difluoroethyl)-N-(3-(6-ethyl-7-oxo-1,2,4a,5,6,7-hexahydro-4H-[1,4]oxazino[4,3-a]pyrido[2,3-f][1,4]diazepin-10-yl)-4-methylphenyl)iso-nicotinamide], which IC50 is on record?
**A.** Its IC50 is 200 pM.

**Q.** How did the IC50 turn out when Cc1ccc(NC(=O)c2ccnc(C(C)(F)F)c2)cc1-c1ccc2c(c1)N1CCOC[C@H]1[C@](C)(N)C2 (racemic) [Example 92, (rac)-(syn)-N-(3-(5-amino-5-methyl-1,2,4,4a,5,6-hexahydro-[1,4]oxazino[4,3-a]quinolin-9-yl)-4-methylphenyl)-2-(1,1-difluoroethyl)isonicotinamide] was run?
**A.** The IC50 was 610 pM.

**Q.** For CCN1C(=O)OC2COCCC2c2cc(-c3cc(NC(=O)c4cccc(C(F)(F)F)c4)cnc3C)cnc21 [Example 298, N-(5-((4aS,11bR- cis)-7-ethyl-6-oxo-2,4,4a,6,7,11b-hexahydro-1H-pyrano[4,3-f]pyrido[2,3-d][1,3]oxazepin-10-yl)-6-methylpyridin-3-yl)-3-(trifluoromethyl) benzamide], which IC50 is on record?
**A.** Its IC50 is 300 pM.

**Q.** How did the IC50 turn out when CCN1C[C@@H]2CCOCCN2c2cc(-c3cc(NC(=O)c4cccc(C(F)(F)F)c4)cnc3C)cnc2C1=O [Example 506, (S)-N-(5-(7-ethyl-8-oxo-1,2,4,5,5a,6,7,8-octahydropyrido[2′, 3′:6,7][1,4]diazepino [1,2-d][1,4]oxazepin-11-yl)-6-methylpyridin-3-yl)-3-(trifluorometh-yl)benzamide] was run?
**A.** The IC50 was 80300 pM.

**Q.** Which IC50 does the source give for CCN1C[C@@H]2COCC[C@H]2c2cc(-c3cc(NC(=O)c4ccnc(C(F)(F)F)c4)ccc3C)cnc21 [Example 291, N-(3-((4aR, 10bR)-6-ethyl-2,4,4a,5,6,10b-hexahydro-1H-pyrano[3,4-c][1,8]naphthyridin-9-yl)-4-methylpheny)-2-(trifluoromethyl) isonicotinamide] here?
**A.** The IC50 was 100 pM.

**Q.** With Cc1ccc(NC(=O)c2ccnc(C(C)(C)F)c2)cc1-c1cnc2c(c1)N1CCOC[C@H]1C[C@H]2O [Example 142, 2-(2-fluoropropan-2-yl)-N-(3-((4aR,6R)-6-hydroxy-1,2,4,4a,5,6-hexahydro-[1,4]oxazino[4,3-a][1,5]naphthyridin-9-yl)-4-methylphenyl)isonicotinamide] as the compound, how does the IC50 read?
**A.** The IC50 was 21 pM.

**Q.** With Cc1ccc(NC(=O)c2ccnc(C(C)(C)F)c2)cc1-c1ccc2c(c1)N1CCOCC1C(CS(C)(=O)=O)C2 (racemic) [Example 365, (rac)-2-(2-fluoropropan-2-yl)-N-(4-methyl-3-(5-((methylsulfonyl)methyl)-1,2,4,4a,5,6-hexahydro-[1,4]oxazino[4,3-a]quinolin-9-yl)phenyl)isonicotinamide] as the compound, how does the IC50 read?
**A.** The IC50 was 200 pM.

**Q.** Cc1ncc(NC(=O)c2cccc(C(F)(F)F)c2)cc1-c1ccc2c(c1)N1CCOC[C@H]1[C@](F)(CO)C2 [Example 383, N-(5-((4aS,5S)-5-fluoro-5-(hydroxymethyl)-1,2,4,4a,5,6-hexahydro-[1,4]oxazino[4,3-a]quinolin-9-yl)-6-methylpyridin-3-yl)-3(trifluoromethyl)benzamide] was tested. Which IC50 did it give?
**A.** The IC50 was 1000 pM.

**Q.** How did the IC50 turn out when Cc1ccc(NC(=O)c2ccnc(C(F)(F)F)c2)cc1-c1ccc2c(=O)c(C(=O)O)c3n(c2c1)CCOC3 [Example 2, 9-(2-methyl-5-(2-(trifluoromethyl)isonicotinamido)phenyl)-6-oxo-1,2,4,6-tetrahydro-[1,4]oxazino[4,3-a]quinoline-5-carboxylic Acid] was run?
**A.** Its IC50 is 136 pM.

**Q.** With CCN1C(=O)[C@H]2[C@@H]3COC[C@@H]3[C@H]2c2cc(-c3cc(NC(=O)c4ccnc(C(F)(F)F)c4F)ccc3C)cnc21 [Example 276, N-(3-((6aR, 6bR, 9aR, 9bR)-5-ethyl-6-oxo-5,6,6a,6b,7,9,9a,9b-octahydrofuro[3′,4′: 3,4]cyclobuta[1,2-c][1,8]naphthyridin-2-yl)-4-methylphenyl)-3-fluoro-2-(trifluoromethyl) isonicotinamide] as the compound, how does the IC50 read?
**A.** Its IC50 is 500 pM.
